In brackets after ≈: the same amount, converted by molar mass. Non-standard residues stand in square brackets, D forms with d. Residues, ends and D or L forms follow the SMILES beside them. No end group written: not given here.
Columns and labels:
RAW 264.7 cells = assay: Cytotoxicity, CCK-8 assay; format: cell-based, murine; settings: 64 μM peptide, 16 h, CCK-8, OD 450 nm
Method: (§1) The cytotoxicity was detected according to a CCK-8 assay as described previously. Briefly, RAW 264.7 and HEK293T cells were placed into 96-well plates at a density of 1.0–2.0 × 10^5, and then cultured for 16 h under conditions of 5% CO2. Then, two-fold diluted peptides in DMEM were added to the plates. After 16 h of culturing, CCK-8 (10%, v/v) was put into each well containing cell culture, and mixtures were cultured for 2 h. The cytotoxicity assay was examined by measuring the OD of the mixtures at 450 nm (Microplate reader, TECAN GENios F129004, Tecan, Salzburg, Austria). The assays were performed three times.

HEK293T cells = assay: Cytotoxicity, CCK-8 assay; format: cell-based, human; settings: 64 μM peptide, 16 h, CCK-8, OD 450 nm
Method: as §1

[1] = tested on: Pseudomonas aeruginosa ATCC27853; settings: ATCC27853, 16 h
Method: (§2) The antimicrobial activity of the designed peptides was examined using the micro-dilution method described previously. The bacteria were cultured for 16 h in MHB at 37 °C, and the microbial suspension was diluted to a final concentration of 10^5 colony-forming units (CFU)/mL. Then, 50 µL of MHB containing different concentrations peptides (0.25–256 µM) was mixed with 50 µL of bacterial solution, and the mixture was added to a 96-well plate. […] The assays were performed three times.

[2] = tested on: methicillin-resistant S. aureus ATCC43300; settings: ATCC43300, 16 h
Method: as §2

S. aureus ATCC29213 = settings: ATCC29213, 16 h
Method: as §2

[3] = tested on: Salmonella Pullorum NCTC5776; settings: NCTC5776, 16 h
Method: as §2

[4] = tested on: Enterococcus faecalis ATCC29212; settings: ATCC29212, 16 h
Method: as §2

E. coli K88 = settings: micro-dilution in MHB, 10^5 CFU/mL, 16 h, OD 492 nm, performed three times
Method: as §2

[5] = tested on: Staphylococcus aureus ATCC25923; settings: ATCC25923, 16 h
Method: as §2

[6] = tested on: Klebsiella pneumonia CMCC46117; settings: CMCC46117, 16 h
Method: as §2

Gram-negative bacteria = settings: 16 h
Method: as §2

[7] = tested on: Escherichia coli ATCC25922; assay: microbe, parasite or virus in culture; settings: ATCC25922, 16 h
Method: as §2

Gram-positive bacteria = assay: Geometric mean of MICs and therapeutic index, Gram (+); format: cell-based; settings: geometric mean over the Gram-positive strains of Table 2; 256 μM used when no activity at 128 μM
Method: as §2

E. coli ATCC25922 = format: cell-based, Escherichia coli; settings: for MIC after pH treatment, pH 4 / MIC after pH treatment, pH 6 / MIC after pH treatment, pH 8 / MIC after pH treatment, pH 10: ATCC25922, 1 h; for MIC after temperature treatment, 0 °C / MIC after temperature treatment, 37 °C / MIC after temperature treatment, 100 °C / MIC in the presence of FeCl3 / MIC in the presence of KCl / MIC in the presence of MgCl2 / MIC in the presence of NH4Cl / MIC in the presence of NaCl / MIC in the presence of ZnCl2 / MIC, Control / MIC, Control (pH 7): ATCC25922, 16 h
Method: as §2
The salt, temperature, and pH sensitivities of designed peptides were determined by MIC assay as described previously. For the salt sensitivity assay, peptides were diluted in deionized water containing different salts, and mixed with E. coli ATCC25922 (10^5 CFU/mL). The final physiological concentrations of different salts were as follows: 150 mM NaCl, 4.5 mM KCl, 6 μM NH4Cl, 1 mM MgCl2, 8 μM ZnCl2, and 4 μM FeCl3. For temperature sensitivity, peptides were cooled on ice for 10 min, and incubated at 37 °C and 100 °C for 30 min. For pH sensitivity, peptides were treated with different pH for 1 h. Briefly, peptides were diluted in deionized water, and the pH of the solution was adjusted to 4.0, 6.0, 8.0, and 10.0 with HCl or NaOH. The subsequent steps were the same as for the MIC measurements. These tests were performed three times.

Row | Molecule | cell survival rate (RAW 264.7 cells) | cell survival rate (HEK293T cells) | MIC [1] | MIC [2] | MIC (S. aureus ATCC29213) | MIC [3] | MIC [4] | MIC (E. coli K88) | MIC [5] | MIC [6] | GM (geometric mean of MICs), Gram (−) (Gram-negative bacteria) | MIC [7] | GM (geometric mean of MICs), Gram (+) (Gram-positive bacteria) | MIC after pH treatment, pH 4 (E. coli ATCC25922) | MIC after pH treatment, pH 6 (E. coli ATCC25922) | MIC after pH treatment, pH 8 (E. coli ATCC25922) | MIC after pH treatment, pH 10 (E. coli ATCC25922) | MIC after temperature treatment, 0 °C (E. coli ATCC25922) | MIC after temperature treatment, 37 °C (E. coli ATCC25922) | MIC after temperature treatment, 100 °C (E. coli ATCC25922) | also measured
1 | N=C(N)NCCC[C@H](NC(=O)CNC(=O)[C@H]1CCCN1C(=O)[C@H](CCCNC(=N)N)NC(=O)[C@H](CCCNC(=N)N)NC(=O)[C@H](Cc1ccccc1)NC(=O)[C@H](Cc1ccccc1)NC(=O)[C@H](CCCNC(=N)N)NC(=O)[C@H](Cc1ccccc1)NC(=O)[C@@H](N)Cc1ccccc1)C(=O)N[C@@H](CCCNC(=N)N)C(=O)N[C@@H](Cc1ccccc1)C(=O)N[C@@H](Cc1ccccc1)C(=O)N[C@@H](CCCNC(=N)N)C(=O)N[C@@H](Cc1ccccc1)C(=O)N[C@@H](Cc1ccccc1)C(N)=O [FRpG] (H-FFRFFRR[dP]GRRFFRFF-NH2) | 78% | 85% | 32 µM (≈ 73.1 µg/mL) | 32 µM (≈ 73.1 µg/mL) | 16 µM (≈ 36.6 µg/mL) | 16 µM (≈ 36.6 µg/mL) | 32 µM (≈ 73.1 µg/mL) | 8 µM (≈ 18.3 µg/mL) | 16 µM (≈ 36.6 µg/mL) | 16 µM (≈ 36.6 µg/mL) | 13.9 µM | 8 µM (≈ 18.3 µg/mL) | 22.6 µM | 16 µM | 8 µM | 8 µM | 32 µM | 8 µM (≈ 18.3 µg/mL) | 8 µM (≈ 18.3 µg/mL) | 8 µM (≈ 18.3 µg/mL) | MIC in the presence of FeCl3 (E. coli ATCC25922): 8 µM; MIC in the presence of KCl (E. coli ATCC25922): 8 µM; MIC in the presence of MgCl2 (E. coli ATCC25922): 8 µM; MIC in the presence of NH4Cl (E. coli ATCC25922): 8 µM; MIC in the presence of NaCl (E. coli ATCC25922): 32 µM; MIC in the presence of ZnCl2 (E. coli ATCC25922): 8 µM; MIC, Control (E. coli ATCC25922): 8 µM (≈ 18.3 µg/mL); MIC, Control (pH 7) (E. coli ATCC25922): 8 µM
2 | CC[C@H](C)[C@H](N)C(=O)N[C@H](C(=O)N[C@@H](CCCNC(=N)N)C(=O)N[C@H](C(=O)N[C@H](C(=O)N[C@@H](CCCNC(=N)N)C(=O)N[C@@H](CCCNC(=N)N)C(=O)N1CCC[C@@H]1C(=O)NCC(=O)N[C@@H](CCCNC(=N)N)C(=O)N[C@@H](CCCNC(=N)N)C(=O)N[C@H](C(=O)N[C@H](C(=O)N[C@@H](CCCNC(=N)N)C(=O)N[C@H](C(=O)N[C@H](C(N)=O)[C@@H](C)CC)[C@@H](C)CC)[C@@H](C)CC)[C@@H](C)CC)[C@@H](C)CC)[C@@H](C)CC)[C@@H](C)CC [IRpG] (H-IIRIIRR[dP]GRRIIRII-NH2) | 98% | 98% | 32 µM (≈ 64.4 µg/mL) | >128 µM | >128 µM | 16 µM (≈ 32.2 µg/mL) | >128 µM | 16 µM (≈ 32.2 µg/mL) | >128 µM | 32 µM (≈ 64.4 µg/mL) | 16 µM | 4 µM (≈ 8.05 µg/mL) | 256 µM | 16 µM | 4 µM | 8 µM | 16 µM | 4 µM (≈ 8.05 µg/mL) | 4 µM (≈ 8.05 µg/mL) | 4 µM (≈ 8.05 µg/mL) | MIC in the presence of FeCl3 (E. coli ATCC25922): 4 µM; MIC in the presence of KCl (E. coli ATCC25922): 4 µM; MIC in the presence of MgCl2 (E. coli ATCC25922): 8 µM; MIC in the presence of NH4Cl (E. coli ATCC25922): 4 µM; MIC in the presence of NaCl (E. coli ATCC25922): 32 µM; MIC in the presence of ZnCl2 (E. coli ATCC25922): 4 µM; MIC, Control (E. coli ATCC25922): 4 µM (≈ 8.05 µg/mL); MIC, Control (pH 7) (E. coli ATCC25922): 4 µM
3 | CC(C)C[C@H](NC(=O)CN)C(=O)N[C@@H](CCCNC(=N)N)C(=O)N[C@@H](CC(C)C)C(=O)N[C@@H](CC(C)C)C(=O)N[C@@H](CCCNC(=N)N)C(=O)N[C@@H](CCCNC(=N)N)C(=O)N[C@@H](CC(C)C)C(=O)N[C@@H](CC(C)C)C(=O)N[C@@H](CCCNC(=N)N)C(=O)N[C@@H](CCCNC(=N)N)C(=O)N[C@@H](CC(C)C)C(=O)N[C@@H](CC(C)C)C(=O)N[C@@H](CCCNC(=N)N)C(=O)N[C@@H](CC(C)C)C(=O)N1CCC[C@@H]1C(N)=O [LRα] (H-GLRLLRRLLRRLLRL[dP]-NH2) | less than 10% | less than 10% | 4 µM (≈ 8.05 µg/mL) | 8 µM (≈ 16.1 µg/mL) | 8 µM (≈ 16.1 µg/mL) | 2 µM (≈ 4.03 µg/mL) | 16 µM (≈ 32.2 µg/mL) | 4 µM (≈ 8.05 µg/mL) | 4 µM (≈ 8.05 µg/mL) | 4 µM (≈ 8.05 µg/mL) | 3 µM | 2 µM (≈ 4.03 µg/mL) | 8 µM | 2 µM | 2 µM | 2 µM | 4 µM | 2 µM (≈ 4.03 µg/mL) | 2 µM (≈ 4.03 µg/mL) | 2 µM (≈ 4.03 µg/mL) | MIC in the presence of FeCl3 (E. coli ATCC25922): 2 µM; MIC in the presence of KCl (E. coli ATCC25922): 2 µM; MIC in the presence of MgCl2 (E. coli ATCC25922): 2 µM; MIC in the presence of NH4Cl (E. coli ATCC25922): 2 µM; MIC in the presence of NaCl (E. coli ATCC25922): 8 µM; MIC in the presence of ZnCl2 (E. coli ATCC25922): 2 µM; MIC, Control (E. coli ATCC25922): 2 µM (≈ 4.03 µg/mL); MIC, Control (pH 7) (E. coli ATCC25922): 2 µM
4 | CO/N=C(\C(=O)N[C@@H]1C(=O)N2C(C(=O)O)=C(COC(C)=O)CS[C@H]12)c1csc(N)n1 [cefotaxime, reference compound] |  |  |  |  |  |  |  |  |  |  |  |  |  |  |  |  |  |  |  |  | MIC ([7]; Escherichia coli): 2 µM (≈ 0.911 µg/mL)
5 | O=C(N[C@H](CO)[C@H](O)c1ccc([N+](=O)[O-])cc1)C(Cl)Cl [chloramphenicol, reference compound] |  |  |  |  |  |  |  |  |  |  |  |  |  |  |  |  |  |  |  |  | MIC ([7]; Escherichia coli): 8 µM (≈ 2.59 µg/mL)
6 | O=C(O)c1cn(C2CC2)c2cc(N3CCNCC3)c(F)cc2c1=O [ciprofloxacin, reference compound] |  |  |  |  |  |  |  |  |  |  |  |  |  |  |  |  |  |  |  |  | MIC ([7]; Escherichia coli): 8 µM (≈ 2.65 µg/mL)
7 | [H]/N=C(/N)N[C@H]1[C@H](O)[C@@H](O)[C@H](O[C@@H]2O[C@@H](C)[C@](O)(C=O)[C@H]2O[C@@H]2O[C@@H](CO)[C@H](O)[C@@H](O)[C@@H]2NC)[C@@H](N/C(N)=N\[H])[C@@H]1O [streptomycin, reference compound] |  |  |  |  |  |  |  |  |  |  |  |  |  |  |  |  |  |  |  |  | MIC ([7]; Escherichia coli): 2 µM (≈ 1.16 µg/mL)
8 | FFRFFRRGGRRFFRFF-NH2 [FRGG] | 66% | 76% | 32 µM | 32 µM | 16 µM | 16 µM | 32 µM | 16 µM | 32 µM | 16 µM | 16 µM | 8 µM | 26.9 µM | 32 µM | 8 µM | 8 µM | 32 µM | 8 µM | 8 µM | 8 µM | MIC in the presence of FeCl3 (E. coli ATCC25922): 8 µM; MIC in the presence of KCl (E. coli ATCC25922): 8 µM; MIC in the presence of MgCl2 (E. coli ATCC25922): 16 µM; MIC in the presence of NH4Cl (E. coli ATCC25922): 8 µM; MIC in the presence of NaCl (E. coli ATCC25922): 64 µM; MIC in the presence of ZnCl2 (E. coli ATCC25922): 16 µM; MIC, Control (E. coli ATCC25922): 8 µM; MIC, Control (pH 7) (E. coli ATCC25922): 8 µM

From publication PMC7037546, “High Cell Selectivity and Bactericidal Mechanism of Symmetric Peptides Centered on D-Pro–Gly Pairs” (International Journal of Molecular Sciences, 2020)
